Experimental data: US20240067617A1 (Albireo AB, priority 2022, published 2024)

Experiments:
hLBAT = target: T1, hLBAT (Homo sapiens, UniProt Q14973); assay: LBAT (h/m) assay: 3H-taurocholic acid uptake in human LBAT-overexpressing cells; assay type: cell-based; settings: 0.3 μM 3H-taurocholic acid + 7.5 μM cold taurocholic acid, 20 minutes at 37° C.
T1 construct: expressed in transfected cells; kept under Geneticin selection
T1 sequence (Q14973 1-349): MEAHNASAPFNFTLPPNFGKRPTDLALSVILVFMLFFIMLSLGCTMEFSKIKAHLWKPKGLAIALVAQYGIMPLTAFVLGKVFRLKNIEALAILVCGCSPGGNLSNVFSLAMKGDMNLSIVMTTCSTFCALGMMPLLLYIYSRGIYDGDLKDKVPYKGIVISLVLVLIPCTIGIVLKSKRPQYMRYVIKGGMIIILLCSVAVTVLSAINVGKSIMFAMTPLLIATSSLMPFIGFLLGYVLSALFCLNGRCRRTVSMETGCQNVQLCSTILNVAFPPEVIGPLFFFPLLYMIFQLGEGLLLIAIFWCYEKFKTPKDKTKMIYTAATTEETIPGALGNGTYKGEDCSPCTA
Protocol: LBAT (h/m) Assay Protocol
20,000 cells (Human or Mouse LBAT-overexpressing cells) were seeded in 96-wells plate (Corning CLS3809) in 100 μL MEM-alpha medium (Gibco 12571-063) supplemented with 10% FBS (Gibco 10438026) containing Geneticin (Gibco 10131-027) (1 mg/mL) and incubated at 37° C. in 5% CO2 for 24 hours. After incubation, media was decanted from the wells and cells were washed two times with 300 μL of basal MEM-alpha medium (FBS-free). After decanting basal MEM-alpha medium each time, plates were tapped against paper towel to ensure maximum removal of residual media. For human LBAT, incubation mix was prepared by adding test inhibitor dilutions (3-fold serial dilution in DMSO (Sigma D2650), 10 points) in MEM-alpha (without FBS) containing 0.3 μM 3H-taurocholic acid (ARC ART-1368) and 7.5 μM cold taurocholic acid (Sigma T4009) (maintaining 0.2% final DMSO concentration). For mouse LBAT, incubation mix was prepared by adding test inhibitor dilutions (3-fold serial dilution in DMSO, 10 points) in MEM-alpha (without FBS) containing 0.3 μM 3H-taurocholic acid and 25 μM cold taurocholic acid maintaining 0.2% final DMSO concentration). 50 μL of incubation mix containing test inhibitors was then added to the wells (in duplicate) and the plates were incubated for 20 minutes in a CO2 incubator at 37° C. After incubation, the reaction was stopped by keeping the plates on ice water mix for 2-3 minutes and then the incubation mix was aspirated completely from the wells. The wells were washed two times with 250 μL of chilled unlabelled 1 mM taurocholic acid dissolved in HEPES (Gibco 15630080)-buffered (10 mM) HBSS (Gibco 14175079) (pH 7.4). The plates were tapped against a paper towel after every wash to ensure maximum removal of blocking buffer.
100 μL of MicroScint-20 (PerkinElmer 6013621) was added to the wells and kept overnight at RT before reading the plates in TopCount NXT™ Microplate Scintillation and Luminescence Counter from PerkinElmer under 3H Test protocol (set at 120 seconds reading time per well, with normal plate orientation).
(§1) Preparation of Test Compound Dilutions
(§2) All test compounds were provided in powder form at RT. 10 mM DMSO stocks of the test compounds were prepared, aliquoted and stored at −20° C. From the 10 mM DMSO stock of the compounds, a 3-fold serial dilution in DMSO was prepared to get a total of 10 dilutions of the test compounds. 0.5 μL of this dilution in DMSO was added to 250 μL of FBS-free basal media containing 3H-taurocholic acid and cold taurocholic acid to prepare the incubation mixture.

hIBAT = target: T2, hIBAT (Homo sapiens, UniProt Q12908); assay: IBAT (h/m) assay: 3H-taurocholic acid uptake in human IBAT-overexpressing cells; assay type: cell-based; settings: 0.25 μM 3H-taurocholic acid + 5 μM cold taurocholic acid, 20 minutes at 37° C., highest test concentration 10 μM
T2 construct: expressed in transfected cells; kept under Puromycin selection
T2 sequence (Q12908 1-348): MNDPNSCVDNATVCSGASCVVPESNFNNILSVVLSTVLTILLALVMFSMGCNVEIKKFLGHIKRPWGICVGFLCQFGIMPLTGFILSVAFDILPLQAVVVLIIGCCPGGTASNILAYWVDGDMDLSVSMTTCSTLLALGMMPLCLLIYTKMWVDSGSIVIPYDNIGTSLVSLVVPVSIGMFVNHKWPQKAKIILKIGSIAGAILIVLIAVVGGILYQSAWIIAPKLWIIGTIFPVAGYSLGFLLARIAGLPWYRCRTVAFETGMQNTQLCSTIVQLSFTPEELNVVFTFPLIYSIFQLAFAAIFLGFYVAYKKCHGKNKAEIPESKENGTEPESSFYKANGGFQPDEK
Protocol: IBAT (h/m) Assay Protocol
10,000 cells (Human or Mouse IBAT-overexpressing cells) were seeded in 96-wells plate (Corning CLS3809) in 200 μL MEM-alpha medium (Gibco 12571-063) supplemented with 10% FBS (Gibco 10438026) containing Puromycin (Gibco A1113803) (10 μg/mL) and incubated at 37° C. in 5% CO2 for 48 hours. After incubation, media was decanted from the wells and cells were washed two times with 300 μL of basal MEM-alpha medium (FBS-free). After decanting basal MEM-alpha medium each time, plates were tapped against paper towel to ensure maximum removal of residual media. Test inhibitor dilutions (highest test concentration being 10 μM, 3-fold serial dilution, 10 points) prepared in DMSO (Sigma D2650) were added in incubation mix (maintaining 0.2% final DMSO concentration) containing 0.25 μM 3H-taurocholic acid (ARC ART-1368) and 5 μM of cold taurocholic acid (Sigma T4009). 50 μL of incubation mix containing test inhibitors was then added to the wells (in duplicate) and the plates were incubated for 20 minutes in a CO2 incubator at 37° C. After incubation, the reaction was stopped by keeping the plates on ice water mix for 2-3 minutes and then the incubation mix was aspirated completely from the wells. The wells were washed two times with 250 μL of chilled unlabelled 1 mM taurocholic acid dissolved in HEPES (Gibco 15630080)-buffered (10 mM) HBSS (Gibco 14175079) (pH 7.4). The plates were tapped against a paper towel after every wash to ensure maximum removal of blocking buffer.
100 μL of MicroScint-20 (PerkinElmer 6013621) was added to the wells and kept overnight at RT before reading the plates in TopCount NXT™ Microplate Scintillation and Luminescence Counter from PerkinElmer under 3H Test protocol (set at 120 seconds reading time per well).
as §1, §2

Row | IC50 (hLBAT) | IC50 (hIBAT) | Structure (SMILES)
1 | > 10000 nM | 36 nM | CCCCC1(CC)CN(c2ccc(F)cc2)c2cc(OC)c(CSCC(=O)O)cc2S(=O)(=O)C1 (single isomer, unassigned) [40, enantiomer 2]
2 | > 3330 nM | 2.5 nM | CCCCC1(CC)CN(c2ccc(F)cc2)c2cc(OC)c(CSCC(=O)O)cc2S(=O)(=O)C1 (racemic) [Example 39, 2-(((3-butyl-3-ethyl-5-(4-fluorophenyl)-7-methoxy-1,1-dioxido-2,3,4,5-tetrahydro-1,5-benzothiazepin-8-yl)methyl)thio)acetic acid]
3 | 164 nM | 10 nM | CCCCC1(CC)CN(c2ccc(F)cc2)c2cc(SC)c(CSC(C)(C)C(=O)O)cc2S(=O)(=O)C1 (single isomer, unassigned) [16, enantiomer 1]
4 | 110 nM | 161 nM | CCCCC1(CC)CN(c2ccc(F)cc2)c2cc(OC)c(CSC(C)(C)C(=O)O)cc2S(=O)(=O)C1 (single isomer, unassigned) [34, enantiomer 1]
5 | 251 nM | 861 nM | CCCCC1(CCCC)CN(c2ccccc2)c2cc(OC)c(CSC(C)(C)C(=O)O)cc2S(=O)(=O)C1 [Example 43, 2-(((3,3-dibutyl-7-methoxy-1,1-dioxido-5-phenyl-2,3,4,5-tetrahydro-1,5-benzothiazepin-8-yl)methyl)thio)-2-methylpropanoic acid]
6 | 220 nM | 659 nM | CCCCC1(CC)CN(c2ccc(F)cc2)c2cc(SC)c(CSC(C)(C)C(=O)O)cc2S(=O)(=O)C1 (single isomer, unassigned) [16, enantiomer 2]
7 | 155 nM | 1960 nM | CCCCC1(CC)CN(c2ccc(F)cc2)c2cc(OC)c(CSC(C)(C)C(=O)O)cc2S(=O)(=O)C1 (single isomer, unassigned) [34, enantiomer 2]
8 | 245 nM | 5110 nM | CCCCC1(CC)CN(c2ccccc2)c2cc(OC)c(CSC(C)(C)C(=O)O)cc2S(=O)(=O)C1 (single isomer, unassigned) [26, enantiomer 2]

The next lines start with the molecule.

Row | Structure (SMILES) | IC50 (hLBAT) | IC50 (hIBAT)
9 | CCCCC1(C)CN(c2ccccc2)c2cc(SC)c(CSCC(=O)O)cc2S(=O)(=O)C1 (single isomer, unassigned) [5, enantiomer 2] | 4400 nM | 44 nM
10 | CCCCC1(CCCC)CN(c2ccccc2)c2cc(SC)c(CSCC(=O)O)cc2S(=O)(=O)N1 [Example 8, 2-(((3,3-dibutyl-7-(methylthio)-1,1-dioxido-5-phenyl-2,3,4,5-tetrahydro-1,2,5-benzothiadiazepin-8-yl)methyl)thio)acetic acid] | > 3330 nM | 0.8 nM
11 | CCCCC1CN(c2ccc(F)cc2)c2cc(OC)c(CSCC(=O)O)cc2S(=O)(=O)N1C (single isomer, unassigned) [30, enantiomer 1] | > 10000 nM | > 10000 nM
12 | CCCCC1CN(c2ccccc2)c2cc(SC)c(CSCC(=O)O)cc2S(=O)(=O)N1C (single isomer, unassigned) [12, enantiomer 1] | > 10000 nM | 115 nM
13 | CCCCC1(C)CN(c2ccccc2)c2cc(OC)c(CSC(C)(C)C(=O)O)cc2S(=O)(=O)C1 (racemic) [Example 41, 2-(((3-butyl-7-methoxy-3-methyl-1,1-dioxido-5-phenyl-2,3,4,5-tetrahydro-1,5-benzothiazepin-8-yl)methyl)thio)-2-methylpropanoic acid] | 134 nM | > 1110 nM
14 | CCCCC1(CC)CN(c2ccccc2)c2cc(SC)c(CSCC(=O)O)cc2S(=O)(=O)N1C (single isomer, unassigned) [21, enantiomer 1] | 3310 nM | > 243 nM
15 | CCCCC1(CC)CN(c2ccccc2)c2cc(S(C)(=O)=O)c(CSCC(=O)O)cc2S(=O)(=O)N1 (single isomer, unassigned) [48, enantiomer 1] | > 1000 nM | 231 nM
16 | CCCCC1(C)CN(c2ccccc2)c2cc(N(C)C)c(CSCC(=O)O)cc2S(=O)(=O)N1 (centres unmarked) [Example 52, 2-(((3-Butyl-7-(dimethylamino)-3-methyl-1,1-dioxido-5-phenyl-2,3,4,5-tetrahydro-1,2,5-benzothiadiazepin-8-yl)methyl)thio)acetic acid] | > 1000 nM | 7.4 nM
17 | CCCCC1(CC)CN(c2ccccc2)c2cc(SC)c(CSCC(=O)O)cc2S(=O)(=O)N1 (single isomer, unassigned) [10, enantiomer 1] | > 3330 nM | 0.3 nM
18 | CCCCC1(CC)CN(c2ccccc2)c2cc(N(C)C)c(CSCC(=O)O)cc2S(=O)(=O)N1 (centres unmarked) [Example 46, 2-(((3-butyl-7-(dimethylamino)-3-ethyl-1,1-dioxido-5-phenyl-2,3,4,5-tetrahydro-1,2,5-benzothiadiazepin-8-yl)methyl)thio)acetic acid] | > 1000 nM | 4.8 nM
19 | CCCC[C@@H]1CN(c2ccccc2)c2cc(N(C)C)c(CSCC(=O)O)cc2S(=O)(=O)N1 [Example 49, (R)-2-(((3-butyl-7-(dimethylamino)-1,1-dioxido-5-phenyl-2,3,4,5-tetrahydro-1,2,5-benzothiadiazepin-8-yl)methyl)thio)acetic acid] | 248 nM | 2320 nM
20 | CCCCC1(C)CN(c2ccccc2)c2cc(OC)c(CSCC(=O)O)cc2S(=O)(=O)C1 (single isomer, unassigned) [28, enantiomer 1] | > 10000 nM | 7.7 nM
21 | CCCCC1(CCCC)CN(c2ccccc2)c2cc(SC)c(CSC(C)(C)C(=O)O)cc2S(=O)(=O)N1C [Example 23, 2-(((3,3-dibutyl-2-methyl-7-(methylthio)-1,1-dioxido-5-phenyl-2,3,4,5-tetrahydro-1,2,5-benzothiadiazepin-8-yl)methyl)thio)-2-methylpropanoic acid] | 145 nM | > 3330 nM
22 | CCCCC1CN(c2ccccc2)c2cc(OC)c(CSC(C)(C)C(=O)O)cc2S(=O)(=O)N1C (single isomer, unassigned) [38, enantiomer 1] | 1130 nM | > 10000 nM
